Reference: PMC8502973 (Frontiers in Physiology, 2021)
pEC50: −log10 of the molar value. “Also recorded” adds a separate entry of the source. Like-named read-outs stand apart in the source and are kept apart here. Positions of bridges follow the written chain, without caps; N, C: chain ends. Residues, ends and D or L forms follow the SMILES beside them. Groups on a side chain read outwards from the residue. *: point of attachment. PEG8 = NCCOCCOCCOCCOCCOCCOCCOCCOCCC(=O)O; Palmitoyl = CCCCCCCCCCCCCCCC(=O)*

Columns and labels:
[1] = sc and iv, rodents; ref Modi et al., 2016; cited from earlier work
[2] = Long-term: gross motor activity and body temperature (Mini-Mitter transponders); type: in vivo, male DIO Sprague Dawley rats; conditions: 28-day study, n = 5 per group; first 12 days analysed
Source text: (§1) Male DIO Sprague Dawley rats (n = 24) were generated as outlined above and were 644.5 g (50 g) at the start of drug treatment. The animals were divided into three treatment groups (n = 8 each) balanced for body weight, body weight gain during baseline, food intake, and Lee Index [body weight^(1/3)/snout to anus length (mm)] ([Lee, 1929]; [Simson and Gold, 1982]) as an indicator of adiposity (Figure 2). In a subset of the animals (n = 5 per group, balanced for prior mentioned criteria), Mini-Mitter transponders (PDT-4000 E-Mitter, Respironics Inc.) were implanted posterior to the left scapula at least 9 days prior to start of baseline measures to ensure sufficient recovery time. Body temperature and gross motor activity were continuously recorded via these transponders. […] High fat diet and water were provided ad libitum and intake was recorded with daily hopper and water bottle weighs at time of body weight assessment just prior to drug administration. Blood samples were taken at start of intervention by tail vein bleeding and via cardiac puncture under an isoflurane induced surgical plane of anesthesia at euthanasia. Animals were euthanized on treatment day 29, 4 h after receiving a dose of their assigned treatment, via decapitation under isoflurane anesthesia immediately following blood draw. Body composition was assessed on carcasses.
For comparisons of mean longitudinal changes in body temperature and activity, only the first 12 days of treatment, divided into three 4-day phases, were included in the analysis. These 4-day phases allowed for analyses to consider the ASK1476 dose titration.

[3] = Long-term (28-day) drug intervention: body weight; type: in vivo, male DIO Sprague Dawley rats; conditions: treatment days 9-28
Experimental: (§2) Sprague Dawley rats (male, ∼4 weeks of age, 51–75 g body weight) were switched from standard chow to a high fat diet (Research Diets, Diet # D12492, 60, 20, 20%kcal from fat, protein, and carbohydrate, respectively, 5.21 kcal/g; stored at −20°C). The rats were maintained on this diet for approximately 15 weeks prior to the start of experiments to develop a diet-induced overweight (DIO) model. Animals were individually housed on a 12 h/12 h light/dark cycle (lights on at 04:00 h) in a temperature (23°C) and humidity (mean 50%, SD 10%) controlled room. All body weight measurements were made just prior to the start of the dark cycle.
as §1
From treatment day 8 on the doses were maintained to assess long-term efficacy at a therapeutically meaningful dose.

[4] = Long-term: hormone and metabolic blood parameters; type: in vivo, male DIO Sprague Dawley rats
Source text: as §1, with “Animals were euthanized on treatment day 29, 4 h after receiving a dose of their assigned treatment, via decapitation under isoflurane anesthesia immediately following blood draw.” left out
Commercially available enzyme-linked immunosorbent assays (ELISA) were used for quantitative assessment of leptin (MilliporeSigma, Burlington, MA) and insulin (MilliporeSigma, Burlington, MA); all with intra-assay CV < 4%. […]

[5] = Dose escalation: kaolin intake (pica, nausea/visceral malaise); type: in vivo, male DIO Sprague Dawley rats
Experimental: as §2
Sequential rounds of a 3-day baseline phase (vehicle treated), a 3-day treatment phase, and a washout phase (2–5 days as necessary) were tested. […] High fat diet was accessible to the rats from all but the last 6 h of the light cycle and water was provided ad libitum. This daily period of food restriction was used to prevent incidental feeding in the event animals were disturbed from their sleep by noise from surrounding rooms. To assess a potential pica response (nausea/visceral malaise) in animals, powdered kaolin (Sigma-Aldrich, K1512) was made available on drug treatment days with a restriction period similar to the high fat diet. Prior to the first experiment, rats were provided access to kaolin for 2 days so that they could familiarize themselves with it prior to start of testing. Food and kaolin intake were continuously recorded using AccuScan DietMax (currently OmniTech Electronics, Inc., Diet System) cages. The high fat diet was compressed in the food tray to form a solid block of food. This allows for more accurate meal size measurements by preventing the animals from removing entire pellets at time. All food and kaolin intake data were binned into 15-min intervals for analysis and the start of the 24-h food intake period aligned to the lights turning off in the animal room. Body weight was recorded, and treatment injections were administered just prior to the start of the dark cycle.

human V2 receptor = molecular target: T1, human V2 receptor (Homo sapiens, UniProt P30518); assay: V2R agonist activity, cAMP production by HTRF, stably transfected CHO cells; type: cell-based; conditions: HTRF detection, read-out: hV2R, EC50
T1 construct: expressed in transfected cells; host or cells: CHO cells
Experimental: V2R: Evaluation of the agonist activity of compounds at the human V2 receptor expressed in stably transfected CHO cells was conducted by measuring their effects on cAMP production using the HTRF detection method ([Cotte et al., 1998]).

[6] = ref Modi et al., 2016, cited from earlier work
Source text: This property allows for reduction of the free fraction of ASK1476 available for enzymatic degradation. The pharmacokinetics study protocol for ASK1476 in mice and rats was described before ([Modi et al., 2016]).

Toxicity / mortality = type: in vivo

T1 sequence (P30518 whole entry): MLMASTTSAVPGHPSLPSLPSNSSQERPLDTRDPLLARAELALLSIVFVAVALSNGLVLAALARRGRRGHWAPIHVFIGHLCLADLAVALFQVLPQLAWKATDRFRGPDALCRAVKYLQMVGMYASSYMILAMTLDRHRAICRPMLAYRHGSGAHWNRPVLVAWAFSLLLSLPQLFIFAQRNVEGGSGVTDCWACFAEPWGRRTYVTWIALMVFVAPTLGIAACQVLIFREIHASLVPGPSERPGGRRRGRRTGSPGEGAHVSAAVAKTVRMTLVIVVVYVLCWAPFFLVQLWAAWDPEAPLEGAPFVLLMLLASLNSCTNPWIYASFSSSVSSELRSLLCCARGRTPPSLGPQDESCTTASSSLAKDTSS

For CCCCCCCCCCCCCCCC(=O)NCCOCCOCCOCCOCCOCCOCCOCCOCCC(=O)NCCCC[C@H](NC(=O)CNC(=O)[C@@H]1CSSC[C@H](N)C(=O)N[C@@H](Cc2ccc(O)cc2)C(=O)N[C@@H]([C@@H](C)CC)C(=O)N[C@@H](CCC(N)=O)C(=O)N[C@@H](CC(N)=O)C(=O)N1)C(=O)NCC(N)=O [ASK1476] (H-CYIQNCGK([PEG8-Palmitoyl])G-NH2; disulfide 1-6), the “half-life vs OXT” value [1] is listed as “increased half-life”, the “plasma protein binding vs OXT” value [1] is listed as “increased plasma protein binding” and the “locomotor activity or body temperature” value [2] is listed as “no effects were detected on locomotor activity or body temperature; also recorded: did not find any evidence”. The “weight stability during final 20 days” value [3] was “remained weight stable”, the “serum ALT, difference vs vehicle” value ([4]; ASK1476, 95% CI −2.1 to −13.2, p = 0.006) was −7.6 U/L and the “ALT, post-treatment” value ([4]; after 28-day Tx, serum, n = 8, Mean ± SD, ASK1476 ** p < 0.01 vs vehicle, ANOVA p 0.009) was 0.440.06** μmol/(sL). The “relationship between kaolin consumption and baseline normalized food intake” value ([5]; ASK1476 6, 15, 30, 60, 120 and 300 nmol/kg) was “no significant association”, the “visceral malaise signal (notably high kaolin intake in a few animals)” value ([5]; ASK1476 dosing spectrum) was “may result in visceral malaise in a subset of animals” and the “kaolin intake of several animals at higher doses” value ([5]; ASK1476 ≥ 30 nmol/kg/d, several animals, not seen with OXT) was greater than 4 g/day. The “kaolin intake, trend with dose” value ([5]; increasing ASK1476 doses, not significant) was “increasing trend”, the “kaolin intake at low doses” value ([5]; low doses, sc once daily) was “below 4 g/d” and the “kaolin intake, effect of treatment” value ([5]; sc once daily, ASK1476 6-300 nmol/kg F(1.80, 12.59) = 2.26, p = 0.148, OXT 20-1200 nmol/kg F(1.51, 10.52) = 1.73, p = 0.223) was “no significant effect of treatment”. The pEC50 (human V2 receptor) was 9.44, the “half-life vs OXT” value ([6]; iv, rats, compared to OXT) was “extended half-life” and the “plasma clearance vs OXT” value ([6]; iv, rats, compared to OXT) was “reduced plasma clearance”. The “steady-state volume of distribution vs OXT” value ([6]; iv, rats, compared to OXT) was “increased steady-state volume of distribution”, the “brain to plasma concentration ratio (distribution)” value ([6]; sc, depot formulation) was “almost exclusive compartmentalization of the molecule to plasma” and the “concentrations in the central compartments” value ([6]; sc, depot formulation) was “only minimal concentrations detectable”. For the same compound, the plasma exposure ([6]; sc, depot formulation) was “prolonged exposure in the plasma”, the “total maximal plasma concentration (Cmax)” value ([6]; sc, mice, at 2 h post-dose) was “improved total maximal plasma concentration (Cmax)” and the half-life ([6]; sc, mice) was “extended half-life”. For the same compound, the death (Toxicity / mortality; 150 nmol/kg intraperitoneal, unpublished dosing experiment) was “death of a rat” and the death (Toxicity / mortality; 300 nmol/kg daily sc, after third dose, cause of death not established) was “one rat was found dead”.
